# Test results: US20230339981A1, “KRAS G12D MODULATING COMPOUNDS” (priority 2022, published 2023)
# Key:
# [1] = biological target: GDP-loaded KRAS G12D (Homo sapiens (Human), UniProt P01116, G12D); experiment: KRAS G12D (GDP) biochemical assay (TR-FRET probe displacement); assay type: binding; details: 2 hours
# Description: Example A. KRAS G12D (GDP) Biochemical Assay
# Compounds were tested for binding to GDP-loaded KRAS G12D in a 384-well assay format using a TR-FRET probe displacement assay in buffer consisting of 50 mM Hepes (pH 7.4), 150 mM NaCl, 5 mM MgCl2 and 0.005% Tween-20. […] Compounds were serially diluted (1:3) in DMSO. The LabCyte ECHO Acoustic dispenser system was used to pre-spot the assay plates (384-well Non-Binding Surface plates, Corning, Catalog #3824) with 50 nL of compound. The compounds were pre-incubated with 5 μL of 2× final enzyme concentration for 30 minutes before adding 5 μL of 2× final concentration of Eu-streptavidin and TR-FRET probe (10 μL final reaction volume). The plates were incubated at room temperature for 2 hours before measuring TR-FRET ratio on the Envision plate reader. IC50 values were defined as the compound concentration that causes a 50% decrease in TR-FRET ratio and were calculated using a sigmoidal dose-response model to generate curve fits.
# [2] = tested on: GP2D (KRAS G12D) cells; experiment: 2D cell viability assay (CellTiter-Glo); assay type: cell-based; details: GP2d, 96 h, 4 days
# Description: Example B. 2D Cell Viability Assay
# Compounds were tested in a 384-well format for their ability to inhibit the viability of GP2D (KRAS G12D) cells in 2D assays. Compounds were serially diluted (1:3) in DMSO. The LabCyte ECHO Acoustic dispenser system was used to pre-spot assay plates with 200 nL of test molecule per well. 1000 cells/well (40 μL volume per well) in RPMI medium with 10% FBS, and Penicillin-Streptomycin-Glutamine were plated in pre-spotted 384-well plates (Greiner, Catalog #781076) on the BioTEK EL406 liquid dispenser with a 5 μL dispensing cassette (BioTek 7170011). The plates were incubated at 37° C., 5% CO2 for 4 days before addition of CellTiter-Glo (CTG) reagent and measurement of luminescence signal. EC50 values were defined as the compound concentration that causes a 50% decrease in luminescence signal and were calculated using a sigmoidal dose-response model to generate curve fits.
# GDP-loaded KRAS G12D, sequence (P01116-2 other isoform, or with tags, fused parts or gaps G12D): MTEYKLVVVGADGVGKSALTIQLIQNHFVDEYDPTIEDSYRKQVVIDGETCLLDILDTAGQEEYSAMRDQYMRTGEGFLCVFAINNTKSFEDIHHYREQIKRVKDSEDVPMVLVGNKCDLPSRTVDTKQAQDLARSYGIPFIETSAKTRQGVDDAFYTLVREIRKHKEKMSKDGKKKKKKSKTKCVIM
compound,measurement,setting,value
"C#Cc1c(F)ccc2cc(O)cc(-c3nc4c5c(nc(OCC6(CN7CCC(F)CC7)CC6)nc5c3F)N3C[C@H]5CC[C@H](N5)[C@H]3CC4)c12 [Example 68, 5-ethynyl-6-fluoro-4-((5aR,6S,9R)-1-fluoro-12-((1-((4-fluoropiperidin-1-yl)methyl)cyclopropyl)methoxy)-4,5,5a,6,7,8,9,10-octahydro-3,10a,11,13,14-pentaaza-6,9-methanonaphtho[1,8-ab]heptalen-2-yl)naphthalen-2-ol]",IC50,[1],0.05 nM
same,EC50,[2],0.6 nM
"C#Cc1c(F)ccc2cccc(-c3nc4c5c(nc(OC[C@@]67CCCN6[C@H](COc6cc(C(F)(F)F)cnn6)CC7)nc5c3F)N3C[C@H]5CC[C@H](N5)[C@H]3CCC4)c12 [Example 198, (6aR,7S,10R)-2-(8-ethynyl-7-fluoronaphthalen-1-yl)-1-fluoro-13-(((3S,7aS)-3-(((5-(trifluoromethyl)pyridazin-3-yl)oxy)methyl)tetrahydro-1H-pyrrolizin-7a(5H)-yl)methoxy)-5,6,6a,7,8,9,10,11-octahydro-4H-3,11a,12,14,15-pentaaza-7,10-methanocyclohepta[4,5]cycloocta[1,2,3-de]naphthalene]",IC50,[1],0.02 nM
same,EC50,[2],2.4 nM
"C#Cc1c(F)ccc2cccc(-c3nc4c5c(nc(OC[C@@]67CCCN6[C@H](COC(C6CC6)C(F)(F)F)CC7)nc5c3F)N3C[C@H]5CC[C@H](N5)[C@H]3CCC4)c12 (stereo partly drawn) [Example 117, (6aR,7S,10R)-13-(((3S,7aS)-3-((1-cyclopropyl-2,2,2-trifluoroethoxy)methyl)tetrahydro-1H-pyrrolizin-7a(5H)-yl)methoxy)-2-(8-ethynyl-7-fluoronaphthalen-1-yl)-1-fluoro-5,6,6a,7,8,9,10,11-octahydro-4H-3,11a,12,14,15-pentaaza-7,10-methanocyclohepta[4,5]cycloocta[1,2,3-de]naphthalene]",IC50,[1],0.1 nM
same,EC50,[2],8.5 nM
"C#Cc1c(F)ccc2cccc(-c3nc4c5c(nc(OC[C@@]67CCCN6[C@H](COCC(F)(F)F)CC7)nc5c3F)N3C[C@H]5CC[C@H](N5)[C@H]3CC4)c12 [Example 164, (5aR,6S,9R)-2-(8-ethynyl-7-fluoronaphthalen-1-yl)-1-fluoro-12-(((3S,7aS)-3-((2,2,2-trifluoroethoxy)methyl)tetrahydro-1H-pyrrolizin-7a(5H)-yl)methoxy)-4,5,5a,6,7,8,9,10-octahydro-3,10a,11,13,14-pentaaza-6,9-methanonaphtho[1,8-ab]heptalene]",IC50,[1],0.3 nM
same,EC50,[2],38 nM
"C#Cc1c(F)ccc2cccc(-c3nc4c5c(nc(OC[C@@]67CCCN6C[C@H](F)C7)nc5c3F)N3C[C@H]5CC[C@H](N5)[C@H]3C[C@H]4CC)c12 [Example 182, (4R,5aR,6S,9R)-4-ethyl-2-(8-ethynyl-7-fluoronaphthalen-1-yl)-1-fluoro-12-(((2R,7aS)-2-fluorotetrahydro-1H-pyrrolizin-7a(5H)-yl)methoxy)-4,5,5a,6,7,8,9,10-octahydro-3,10a,11,13,14-pentaaza-6,9-methanonaphtho[1,8-ab]heptalene]",IC50,[1],0.4 nM
same,EC50,[2],87 nM
"C#Cc1c(F)ccc2cccc(-c3nc4c5c(nc(OCC6(CN7CC[C@H](OC(F)(F)F)C7)CC6)nc5c3F)N3C[C@H]5CC[C@H](N5)[C@H]3CCC4)c12 [Example 126, (6aR,7S,10R)-2-(8-ethynyl-7-fluoronaphthalen-1-yl)-1-fluoro-13-((1-(((S)-3-(trifluoromethoxy)pyrrolidin-1-yl)methyl)cyclopropyl)methoxy)-5,6,6a,7,8,9,10,11-octahydro-4H-3,11a,12,14,15-pentaaza-7,10-methanocyclohepta[4,5]cycloocta[1,2,3-de]naphthalene]",IC50,[1],2 nM
same,EC50,[2],94.4 nM
"C#Cc1c(F)ccc2cccc(-c3nc4c5c(nc(OC[C@@]67CCCN6C[C@@]6(CC6(F)F)C7)nc5c3F)N3C[C@H]5CC[C@H](N5)[C@@H]3[C@@H](C)C4)c12 [Example 85, (5S,5aS,6S,9R)-12-(((1S,7a'S)-2,2-difluorodihydro-1′H,3′H-spiro[cyclopropane-1,2′-pyrrolizin]-7a′(5′H)-yl)methoxy)-2-(8-ethynyl-7-fluoronaphthalen-1-yl)-1-fluoro-5-methyl-4,5,5a,6,7,8,9,10-octahydro-3,10a,11,13,14-pentaaza-6,9-methanonaphtho[1,8-ab]heptalene]",IC50,[1],6.8 nM
same,EC50,[2],58 nM
"C#Cc1c(F)ccc2cccc(-c3nc4c5c(nc(OC[C@]67CCCN6CC(OC(C(F)(F)F)(C(F)(F)F)C(F)(F)F)C7)nc5c3F)N3C[C@H]5CC[C@H](N5)[C@H]3CC4)c12 (stereo partly drawn) [Example 114, (5aR,6S,9R)-2-(8-ethynyl-7-fluoronaphthalen-1-yl)-1-fluoro-12-((trans-2-((1,1,1,3,3,3-hexafluoro-2-(trifluoromethyl)propan-2-yl)oxy)tetrahydro-1H-pyrrolizin-7a(5H)-yl)methoxy)-4,5,5a,6,7,8,9,1O-octahydro-3,10a,11,13,14-pentaaza-6,9-methanonaphtho[1,8-ab]heptalene]",IC50,[1],125 nM
same,EC50,[2],1000 nM
"C#Cc1c(F)ccc2cc(O)cc(-c3nc4c5c(nc(OC[C@@]67CCCN6C[C@H](F)C7)nc5c3F)N3C[C@H]5CC[C@H](N5)[C@@H]3CC4)c12 [Example 133, 5-ethynyl-6-fluoro-4-((5aS,6S,9R)-1-fluoro-12-(((2R,7aS)-2-fluorotetrahydro-1H-pyrrolizin-7a(5H)-yl)methoxy)-4,5,5a,6,7,8,9,10-octahydro-3,10a,11,13,14-pentaaza-6,9-methanonaphtho[1,8-ab]heptalen-2-yl)naphthalen-2-ol]",EC50,[2],1.1 nM
"C#Cc1c(F)ccc2cc(O)cc(-c3nc4c5c(nc(OC[Si](C)(C)CN6CCOCC6)nc5c3F)N3C[C@H]5CC[C@H](N5)[C@H]3CO4)c12 [Example 29, 4-((5aS,6S,9R)-12-((dimethyl(morpholinomethyl)silyl)methoxy)-1-fluoro-5a,6,7,8,9,10-hexahydro-5H-4-oxa-3,10a,11,13,14-pentaaza-6,9-methanonaphtho[1,8-ab]heptalen-2-yl)-5-ethynyl-6-fluoronaphthalen-2-ol]",EC50,[2],> 1000 nM
"C#Cc1c(F)ccc2cccc(-c3nc4c5c(nc(OC[C@@]67CCCN6C[C@@H](OC(F)(F)F)C7)nc5c3F)N3C[C@H]5CC[C@H](N5)[C@H]3CC4)c12 (stereo in doubt) [Example 140, (5aR,6S,9R)-2-(8-ethynyl-7-fluoronaphthalen-1-yl)-1-fluoro-12-((cis-2-(trifluoromethoxy)tetrahydro-1H-pyrrolizin-7a(5H)-yl)methoxy)-4,5,5a,6,7,8,9,10-octahydro-3,10a,11,13,14-pentaaza-6,9-methanonaphtho[1,8-ab]heptalene]",EC50,[2],75.9 nM
"Fc1ccc2cccc(-c3nc4c5c(nc(OC[C@@]67CCCN6C[C@H](F)C7)nc5c3F)N3C[C@H]5CC[C@H](N5)[C@H]3CC4)c2c1OC(F)(F)F [Example 65, (5aR,6S,9R)-1-fluoro-2-(7-fluoro-8-(trifluoromethoxy)naphthalen-1-yl)-12-(((2R,7aS)-2-fluorotetrahydro-1H-pyrrolizin-7a(5H)-yl)methoxy)-4,5,5a,6,7,8,9,10-octahydro-3,10a,11,13,14-pentaaza-6,9-methanonaphtho[1,8-ab]heptalene]",EC50,[2],450 nM
